The values that follow are results of earlier work, collected in patent US8350059B2, “Intermediates and methods for making zearalenone macrolide analogs” (Eisai R&D Management Co., Ltd., priority 2007, dated 2013).

Molecules are shown by their SMILES.

The subject of the series is Map/Erk kinase (MEK). Conditions: background statement.

As for `COc1cc(O)c2c(c1)/C=C/C[C@H](O)[C@H](O)C(=O)/C=C\C[C@H](C)OC2=O` [F152], the “inhibition of the phosphorylating enzyme Map/Erk kinase (MEK)” value is recorded as “inhibit the phosphorylating enzyme Map/Erk kinase (MEK)”.
